Experiment: xn = mol fraction of the nth substance listed
Settings: Liquid, Vibrating tube method

CCCCCCCC [octane] + CCCO
mass density [kg/m3]
Settings | 353.15 K | 363.15 K
100 kPa, x2 = 0.1631 | – | 643.75
100 kPa, x2 = 0.2111 | – | 645.23
100 kPa, x2 = 0.3158 | – | 649.43
100 kPa, x2 = 0.4411 | – | 656.74
100 kPa, x2 = 0.7301 | – | 685.03
100 kPa, x2 = 0.8823 | – | 711.1
1000 kPa, x2 = 0.2111 | – | 646.4
1010 kPa, x2 = 0.1631 | – | 644.92
1010 kPa, x2 = 0.3158 | – | 650.63
1020 kPa, x2 = 0.4411 | – | 658.07
1020 kPa, x2 = 0.7301 | – | 686.21
1020 kPa, x2 = 0.8823 | – | 712.01
2000 kPa, x2 = 0.3158 | – | 652.01
2000 kPa, x2 = 0.4411 | – | 659.42
2000 kPa, x2 = 0.7301 | – | 687.5
2000 kPa, x2 = 0.8823 | – | 713.23
2010 kPa, x2 = 0.1631 | – | 646.32
2010 kPa, x2 = 0.2111 | – | 647.77
3000 kPa, x2 = 0.1631 | – | 647.65
3010 kPa, x2 = 0.3158 | – | 653.38
3010 kPa, x2 = 0.4411 | – | 660.78
3010 kPa, x2 = 0.8823 | – | 714.49
3020 kPa, x2 = 0.2111 | – | 649.11
3020 kPa, x2 = 0.7301 | – | 688.81
4010 kPa, x2 = 0.2111 | – | 650.5
4010 kPa, x2 = 0.3158 | – | 654.7
4010 kPa, x2 = 0.4411 | – | 662.14
4010 kPa, x2 = 0.8823 | – | 715.75
4020 kPa, x2 = 0.1631 | – | 649
4020 kPa, x2 = 0.7301 | – | 690.17
5000 kPa, x2 = 0.2111 | – | 651.8
5000 kPa, x2 = 0.3158 | – | 656.03
5000 kPa, x2 = 0.7301 | – | 691.49
5010 kPa, x2 = 0.1631 | – | 650.29
5010 kPa, x2 = 0.8823 | – | 716.99
5020 kPa, x2 = 0.4411 | – | 663.46
6000 kPa, x2 = 0.8823 | – | 718.21
6010 kPa, x2 = 0.1631 | – | 651.6
6010 kPa, x2 = 0.2111 | – | 653.06
6020 kPa, x2 = 0.3158 | – | 657.34
6020 kPa, x2 = 0.4411 | – | 664.8
6020 kPa, x2 = 0.7301 | – | 692.76
7000 kPa, x2 = 0.1631 | – | 652.93
7000 kPa, x2 = 0.3158 | – | 658.67
7000 kPa, x2 = 0.4411 | – | 666.13
7010 kPa, x2 = 0.2111 | – | 654.35
7020 kPa, x2 = 0.7301 | – | 694.08
7020 kPa, x2 = 0.8823 | – | 719.45
8000 kPa, x2 = 0.3158 | – | 660
8010 kPa, x2 = 0.1631 | – | 654.22
8010 kPa, x2 = 0.2111 | – | 655.68
8010 kPa, x2 = 0.8823 | – | 720.66
8020 kPa, x2 = 0.4411 | – | 667.45
8020 kPa, x2 = 0.7301 | – | 695.38
9000 kPa, x2 = 0.1631 | – | 655.49
9000 kPa, x2 = 0.8823 | – | 721.91
9010 kPa, x2 = 0.3158 | – | 661.3
9010 kPa, x2 = 0.4411 | – | 668.75
9010 kPa, x2 = 0.7301 | – | 696.66
9020 kPa, x2 = 0.2111 | – | 656.97
10000 kPa, x2 = 0.1631 | – | 656.77
10000 kPa, x2 = 0.4411 | – | 670.08
10010 kPa, x2 = 0.2111 | – | 658.25
10010 kPa, x2 = 0.3158 | 674.1 | –
10010 kPa, x2 = 0.4411 | 682.1 | –
10010 kPa, x2 = 0.7301 | 710.33 | –
10010 kPa, x2 = 0.8823 | – | 723.12
10020 kPa, x2 = 0.3158 | – | 662.62
10020 kPa, x2 = 0.7301 | – | 697.93
11000 kPa, x2 = 0.1631 | 668.3 | 658.05
11000 kPa, x2 = 0.4411 | – | 671.35
11000 kPa, x2 = 0.7301 | 711.46 | –
11000 kPa, x2 = 0.8823 | 735.72 | –
11010 kPa, x2 = 0.2111 | – | 659.52
11010 kPa, x2 = 0.3158 | – | 663.89
11010 kPa, x2 = 0.4411 | 683.25 | –
11010 kPa, x2 = 0.7301 | – | 699.17
11020 kPa, x2 = 0.2111 | 670.17 | –
11020 kPa, x2 = 0.3158 | 675.25 | –
11020 kPa, x2 = 0.8823 | – | 724.31
12000 kPa, x2 = 0.1631 | – | 659.27
12000 kPa, x2 = 0.2111 | 671.35 | –
12000 kPa, x2 = 0.3158 | 676.4 | –
12000 kPa, x2 = 0.4411 | 684.41 | –
12000 kPa, x2 = 0.7301 | 712.61 | –
12000 kPa, x2 = 0.8823 | – | 725.46
12010 kPa, x2 = 0.1631 | 669.46 | –
12010 kPa, x2 = 0.2111 | – | 660.8
12010 kPa, x2 = 0.3158 | – | 665.14
12020 kPa, x2 = 0.4411 | – | 672.6
12020 kPa, x2 = 0.7301 | – | 700.4
12020 kPa, x2 = 0.8823 | 736.81 | –
13000 kPa, x2 = 0.3158 | 677.55 | 666.41
13000 kPa, x2 = 0.4411 | – | 673.84
13000 kPa, x2 = 0.8823 | – | 726.58
13010 kPa, x2 = 0.1631 | 670.56 | 660.51
13010 kPa, x2 = 0.2111 | – | 662.01
13010 kPa, x2 = 0.7301 | – | 701.64
13010 kPa, x2 = 0.8823 | 737.84 | –
13020 kPa, x2 = 0.2111 | 672.46 | –
13020 kPa, x2 = 0.4411 | 685.53 | –
13020 kPa, x2 = 0.7301 | 713.71 | –
14000 kPa, x2 = 0.1631 | 671.69 | –
14000 kPa, x2 = 0.3158 | 678.66 | –
14000 kPa, x2 = 0.4411 | 686.68 | –
14000 kPa, x2 = 0.7301 | 714.83 | –
14010 kPa, x2 = 0.1631 | – | 661.7
14010 kPa, x2 = 0.2111 | 673.57 | 663.23
14010 kPa, x2 = 0.3158 | – | 667.62
14010 kPa, x2 = 0.7301 | – | 702.82
14010 kPa, x2 = 0.8823 | 738.9 | –
14020 kPa, x2 = 0.4411 | – | 675.08
14020 kPa, x2 = 0.8823 | – | 727.76
15000 kPa, x2 = 0.4411 | 687.73 | –
15000 kPa, x2 = 0.8823 | 739.94 | 728.85
15010 kPa, x2 = 0.1631 | 672.77 | 662.89
15010 kPa, x2 = 0.4411 | – | 676.25
15010 kPa, x2 = 0.7301 | – | 704
15020 kPa, x2 = 0.2111 | 674.7 | 664.4
15020 kPa, x2 = 0.3158 | 679.74 | 668.79
15020 kPa, x2 = 0.7301 | 715.89 | –
16000 kPa, x2 = 0.3158 | – | 669.98
16000 kPa, x2 = 0.8823 | – | 729.97
16010 kPa, x2 = 0.1631 | 673.82 | –
16010 kPa, x2 = 0.2111 | 675.76 | 665.57
16010 kPa, x2 = 0.3158 | 680.86 | –
16010 kPa, x2 = 0.7301 | 716.98 | 705.17
16010 kPa, x2 = 0.8823 | 740.94 | –
16020 kPa, x2 = 0.1631 | – | 664
16020 kPa, x2 = 0.4411 | 688.85 | 677.45
17000 kPa, x2 = 0.1631 | 674.88 | –
17000 kPa, x2 = 0.3158 | 681.92 | –
17000 kPa, x2 = 0.4411 | 689.88 | –
17000 kPa, x2 = 0.7301 | – | 706.32
17000 kPa, x2 = 0.8823 | – | 731.02
17010 kPa, x2 = 0.1631 | – | 665.15
17010 kPa, x2 = 0.3158 | – | 671.18
17010 kPa, x2 = 0.4411 | – | 678.56
17010 kPa, x2 = 0.7301 | 718.02 | –
17020 kPa, x2 = 0.2111 | 676.83 | 666.77
17020 kPa, x2 = 0.8823 | 741.94 | –
18000 kPa, x2 = 0.8823 | – | 732.11
18010 kPa, x2 = 0.1631 | 675.92 | –
18010 kPa, x2 = 0.2111 | 677.86 | –
18010 kPa, x2 = 0.3158 | – | 672.26
18010 kPa, x2 = 0.4411 | 690.94 | 679.72
18010 kPa, x2 = 0.7301 | 719.02 | –
18010 kPa, x2 = 0.8823 | 742.92 | –
18020 kPa, x2 = 0.1631 | – | 666.27
18020 kPa, x2 = 0.2111 | – | 667.86
18020 kPa, x2 = 0.3158 | 682.96 | –
18020 kPa, x2 = 0.7301 | – | 707.41
19000 kPa, x2 = 0.1631 | 676.89 | 667.34
19000 kPa, x2 = 0.4411 | – | 680.79
19000 kPa, x2 = 0.8823 | – | 733.13
19010 kPa, x2 = 0.2111 | 678.87 | 668.92
19010 kPa, x2 = 0.3158 | 683.98 | 673.36
19010 kPa, x2 = 0.4411 | 691.96 | –
19010 kPa, x2 = 0.7301 | 720.02 | 708.47
19010 kPa, x2 = 0.8823 | 743.88 | –
20000 kPa, x2 = 0.7301 | 721.02 | –
20000 kPa, x2 = 0.8823 | 744.83 | –
20010 kPa, x2 = 0.1631 | 677.88 | 668.36
20010 kPa, x2 = 0.2111 | – | 669.97
20010 kPa, x2 = 0.3158 | 684.96 | 674.4
20010 kPa, x2 = 0.4411 | 692.97 | –
20020 kPa, x2 = 0.2111 | 679.82 | –
20020 kPa, x2 = 0.4411 | – | 681.9
20020 kPa, x2 = 0.7301 | – | 709.58
20020 kPa, x2 = 0.8823 | – | 734.15

Source: the NIST ThermoML archive (doi:10.1021/acs.jced.8b00554)
